Consider 2 molecules from publication PMC11744668, “2-Cyanopyrimidine-Containing Molecules for N-Terminal Selective Cyclization of Phage-Displayed Peptides” (ACS Chemical Biology, 2025).

Assay [1] is described as follows: Peptide cyclization kinetics with model peptide CGK-5. The note with it: 500 μM CGK-5, 550 μM linker, RT; for cyclization of CGK-5 (in words): ABC buffer pH 7.4, 1 mM TCEP, 2 h, LC-MS; for half-life of the cyclization reaction with CGK-5: ammonium bicarbonate (ABC) buffer, TCEP, HPLC, one-phase association, mean ± 95% CI, at least three independent experiments. The source says:
While pCAmCP and mCAmCP gave efficient cyclization of the peptide fusion of sfGFP, we looked to further investigate the specificity of the reaction using peptide kinetic assays. To do this, we first established reactivity of the compounds with a model peptide (CGK-5, Figures 3A and S16) that was composed of two cysteines flanking a region tuned for solubility in buffer (GGKGG) and with a tryptophan residue on the C-terminus for UV absorbance. […] To test the specificity of the reaction for the N-terminal cysteine, we synthesized a peptide analogue (CGK-5Abu, Figures 3D–F and S17) that contained 2-aminobutyric acid in place of the N-terminal cysteine. […] Since these reactions occurred at 500 μM of peptide to allow for analysis on the HPLC, we envision this difference will likely be exaggerated when using lower peptide/protein concentrations. Although it is unlikely at neutral pH, the chloroacetamide moiety can possibly react with nucleophilic amino acids other than cysteine. To defuse this concern, we designed a peptide containing a variety of possibly nucleophilic residues (serine, arginine, tyrosine, histidine, and lysine, but not an internal cysteine) adjacent to the N-terminal cysteine (BCP, Figure S18) and let the peptide react with pCAmCP or mCAmCP. […] On the other hand, peptides that contained an internal cysteine were nearly completely reacted with the chloroacetamide after less than 2 h at the same concentrations (Figure 3B,C). This indicates high specificity for the chloroacetamide reacting with an internal cysteine in comparison to other nucleophilic residues at pH 7.4. […] It could be that the side reaction with TCEP may help mask the chloroacetamide after long incubation periods to prevent it from reacting with less reactive nucleophiles.
The peptide (CGK-5 or CGK-5Abu, 5 mM stock in water) was diluted to 500 μM in ammonium bicarbonate buffer (50 mM, pH 7.5) containing 1.2 mM TCEP. Following dilution of the peptide, the organic linker (10 mM in DMSO) was added to a final concentration of 550 μM. The reaction mixture was incubated while being shaken at RT. At each time point (5, 10, 15, 30, 45, 60, 120, and 240 min), 5 μL of reaction mixture was removed, and the reaction was quenched by the addition of 5 μL of 100 mM cysteine. Following dilution with 20 μL of water, the sample was then analyzed on a Shimadzu HPLC with an LCMS-2020 mass spectrometer attached (10–40% ACN gradient in H2O over 6 min, 0.1% formic acid, 1 mL/min flow rate, Shimadzu C18 250 × 4.6 mm, 5 μm). Peaks corresponding to the cyclized and unreacted forms were then integrated on the Shimadzu LabSolutions software, plotted in GraphPad Prism, and fitted using a one-phase association fitting parameter to determine reaction half-lives.

Assay [2] in a line: Specificity of linker reaction with BCP peptide (nucleophilic residues, no internal cysteine). Conditions: 500 µM BCP, 550 µM linker, 50 mM NH4HCO3, 1.2 mM TCEP, pH 7.5, 4 h. The source says: While pCAmCP and mCAmCP gave efficient cyclization of the peptide fusion of sfGFP, we looked to further investigate the specificity of the reaction using peptide kinetic assays. To do this, we first established reactivity of the compounds with a model peptide (CGK-5, Figures 3A and S16) that was composed of two cysteines flanking a region tuned for solubility in buffer (GGKGG) and with a tryptophan residue on the C-terminus for UV absorbance. […] To test the specificity of the reaction for the N-terminal cysteine, we synthesized a peptide analogue (CGK-5Abu, Figures 3D–F and S17) that contained 2-aminobutyric acid in place of the N-terminal cysteine. […] Since these reactions occurred at 500 μM of peptide to allow for analysis on the HPLC, we envision this difference will likely be exaggerated when using lower peptide/protein concentrations. Although it is unlikely at neutral pH, the chloroacetamide moiety can possibly react with nucleophilic amino acids other than cysteine. To defuse this concern, we designed a peptide containing a variety of possibly nucleophilic residues (serine, arginine, tyrosine, histidine, and lysine, but not an internal cysteine) adjacent to the N-terminal cysteine (BCP, Figure S18) and let the peptide react with pCAmCP or mCAmCP. […]

As for `N#Cc1nccc(NC(=O)CCl)n1` [mCAmCP, 2-chloro-N-(2-cyanopyrimidin-4-yl)acetamide], in assay [1], the “cyclization of CGK-5 (in words)” value is on record as “nearly complete cyclization of the peptide after 2 h” and the “half-life of the cyclization reaction with CGK-5” value came to 13 ± 3 min. In assay [2], the “specificity of chloroacetamide toward nucleophilic residues other than cysteine (in words)” value is “the chloroacetamide was left intact, with the only observed side reaction being the addition of TCEP to the chloroacetamide”.

With `N#Cc1ncc(NC(=O)CCl)cn1` [pCAmCP, 2-chloro-N-(2-cyanopyrimidin-5-yl)acetamide], in assay [1], the “cyclization of CGK-5 (in words)” value was “nearly complete cyclization of the peptide after 2 h” and the “half-life of the cyclization reaction with CGK-5” value is 23 ± 5 min. Besides, the “specificity of chloroacetamide toward nucleophilic residues other than cysteine (in words)” value in assay [2] was “the chloroacetamide was left intact, with the only observed side reaction being the addition of TCEP to the chloroacetamide”.
